Reference: ChEMBL document CHEMBL1201862, “PubChem BioAssay data set” (2004)
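All cell lines were grown in 96-well plates and treated with compound for 48 hours. GI50 marks 50% less growth.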 Active and inactive are the calls of the source. Rule as the data show it: active = GI50 up to about 1.1 µM and inactive = higher.

What was measured:
Experiment in all cases: inhibition of tumour cell growth, NCI panel, 48 h
DLD-1 = test system: DLD-1
DMS-114 = test system: DMS-114
DMS-273 = test system: DMS-273
HOP-18 = test system: HOP-18
LXFL 529 = test system: LXFL 529
SNB-78 = test system: SNB-78
XF498 = test system: XF498
RXF 631 = test system: RXF 631
BT-549 = test system: BT-549

Measured: GI50

COc1ccc(/C(Cl)=C(\C=N/O)c2ccc(OC)c(OC)c2)cc1OC
inactive: DLD-1 > 100 µM | DMS-114 30.8 µM | DMS-273 > 100 µM | HOP-18 > 100 µM | LXFL 529 > 100 µM | SNB-78 75.5 µM | XF498 > 100 µM

C[N+](C)(C)Cc1c(CC#N)[nH]c2ccccc12
inactive: DLD-1 > 100 µM | DMS-114 > 100 µM | DMS-273 > 100 µM | LXFL 529 > 100 µM | XF498 > 100 µM

C/C(CC(=O)N(C(C)C)C(C)C)=N\NC(=O)c1ccncc1
inactive: DLD-1 > 100 µM | DMS-273 > 100 µM | HOP-18 > 100 µM | LXFL 529 > 100 µM | RXF 631 > 100 µM | SNB-78 > 100 µM | XF498 > 100 µM

COc1cc2ccnc(C#N)c2cc1OCc1ccccc1
inactive: DLD-1 > 100 µM | HOP-18 > 100 µM | LXFL 529 > 100 µM | SNB-78 > 100 µM | XF498 53.6 µM

Cc1ccccc1C(=O)N1CCN(C(=O)c2ccccc2C)CC1
inactive: DLD-1 > 100 µM | DMS-273 > 100 µM | HOP-18 > 100 µM | LXFL 529 > 100 µM | RXF 631 > 100 µM | SNB-78 > 100 µM | XF498 > 100 µM

Cn1c(C2CC(C)(C)c3c2c2ccccc2n3C)cc2ccccc21 (configuration not stated)
inactive: DLD-1 > 304 µM | DMS-114 138 µM | DMS-273 > 304 µM | LXFL 529 > 304 µM | XF498 115 µM

COc1c(C)cc2c(c1O)C1NC(C2)[C@H](O)N2C3COC(=O)[C@@]4(CS[C@@H](c5c(OC(C)=O)c(C)c6c(c53)OCO6)C12)NCCC1=C4NC2C=CC=CC12 (some centres not stated)
active: DLD-1 < 0.01 µM | DMS-114 < 0.01 µM | DMS-273 < 0.01 µM | LXFL 529 < 0.01 µM | RXF 631 < 0.01 µM | XF498 < 0.01 µM

Nc1ccc(S(=O)(=O)Nc2ccc(Nc3c4ccccc4nc4ccccc34)cc2)cc1
active: BT-549 0.0906 µM | DLD-1 1.06 µM | DMS-114 < 0.0102 µM | DMS-273 < 0.01 µM | HOP-18 0.43 µM | RXF 631 0.284 µM
inactive: LXFL 529 3.91 µM | SNB-78 3.78 µM | XF498 3.61 µM

Cn1c2ccccc2n2c3nc4ccccc4nc3c(C#N)c12
inactive: BT-549 > 100 µM | DMS-114 > 100 µM | DMS-273 > 100 µM | HOP-18 > 100 µM | LXFL 529 > 100 µM | XF498 > 100 µM
active: DLD-1 < 0.01 µM

O=C1C2=C(c3ccccc31)C(c1ccc(F)cc1)N1C(=O)CCSC1=N2 (configuration not stated)
inactive: DLD-1 > 100 µM | DMS-114 71.6 µM | DMS-273 > 100 µM | LXFL 529 45.4 µM | XF498 > 100 µM

NC1=C(Br)C(=O)c2ncccc2C1=O
inactive: RXF 631 1.79 µM
active: DLD-1 0.607 µM | DMS-114 0.16 µM | DMS-273 0.352 µM | LXFL 529 0.321 µM | SNB-78 0.828 µM | XF498 0.998 µM

O=Cc1cn(S(=O)(=O)c2ccccc2)c2ccccc12
inactive: DLD-1 27.2 µM | DMS-114 24.8 µM | HOP-18 32.4 µM | LXFL 529 36.4 µM | RXF 631 53.7 µM | SNB-78 41.3 µM | XF498 46 µM

COc1ccc(C2=NC(C)(C)CO2)cc1
inactive: DLD-1 > 100 µM | DMS-114 > 100 µM | DMS-273 > 100 µM | HOP-18 > 100 µM | SNB-78 > 100 µM | XF498 > 100 µM

CC[P+](C)(Cc1ccccc1)c1ccccc1.O=C(OC(C(=O)[O-])C(OC(=O)c1ccccc1)C(=O)O)c1ccccc1 (configuration not stated)
inactive: DLD-1 > 100 µM | DMS-273 > 100 µM | HOP-18 5.47 µM | SNB-78 > 100 µM | XF498 > 100 µM

O=C(c1ccccc1)c1nc2c(Cl)ccc(Cl)c2cc1C(Br)Br
inactive: DMS-114 2.04 µM | DMS-273 1.32 µM | HOP-18 1.66 µM | RXF 631 1.78 µM | SNB-78 2.06 µM
active: DLD-1 0.444 µM | LXFL 529 0.39 µM | XF498 1.07 µM

CC(C)CCCCCCCCCCCCC(=O)NCC(=O)NC1C(O)C(O)C(Nc2[nH]cnc3ncnc2-3)OC1C(O)CO (configuration not stated)
active: BT-549 0.207 µM | DLD-1 0.0205 µM | DMS-114 0.000416 µM | DMS-273 0.000133 µM | HOP-18 0.000164 µM | SNB-78 0.000148 µM

O=c1c2ccccc2c2c3c1cccc3c1cccc3c(=O)c4ccccc4c2c31
inactive: DLD-1 > 100 µM | DMS-114 > 100 µM | DMS-273 > 100 µM | HOP-18 > 100 µM | LXFL 529 > 100 µM | RXF 631 > 100 µM | SNB-78 > 100 µM

COC1OC(CO)C(O)C(O)C1Br (configuration not stated)
inactive: DLD-1 > 100 µM | DMS-273 > 100 µM | HOP-18 > 100 µM | LXFL 529 > 100 µM | RXF 631 > 100 µM | SNB-78 > 100 µM | XF498 > 100 µM

Cc1ccc(C)c(NC(=O)C(=O)C(C2C(C)CC(=O)C2CC(=O)O)[N+](=O)[O-])c1 (configuration not stated)
inactive: DLD-1 > 100 µM | DMS-114 > 100 µM | LXFL 529 > 100 µM | RXF 631 > 100 µM | SNB-78 > 100 µM | XF498 > 100 µM

NC(=O)CCC(NC(=O)Cc1ccccc1)C(=O)O.NC(CCC(=O)NC(=O)Cc1ccccc1)C(=O)O (configuration not stated)
inactive: DLD-1 > 8130 µM | DMS-114 > 8130 µM | HOP-18 > 8130 µM | LXFL 529 > 8130 µM

Cc1ccc(C)c2c1CCc1cc3ccccc3nc1-2
inactive: DLD-1 > 100 µM | DMS-114 > 100 µM | HOP-18 2.65 µM | LXFL 529 > 100 µM | SNB-78 > 100 µM | XF498 > 100 µM

CN(C)CCNC(=O)C1COc2cc(-c3cc(=O)c4ccccc4o3)ccc2O1 (configuration not stated)
inactive: DLD-1 27.3 µM | DMS-273 18.5 µM | HOP-18 24.4 µM | SNB-78 24.7 µM

COc1ccc2c3c([nH]c2c1[N+](=O)[O-])C(C)N(Cc1ccccc1)CC3 (configuration not stated)
inactive: DLD-1 > 100 µM | DMS-114 3.39 µM | LXFL 529 5.07 µM | SNB-78 3.59 µM
active: DMS-273 1.04 µM

CC1CC2CC(=O)CC3(C1)C2CCCN3CCCO (configuration not stated)
inactive: DLD-1 > 100 µM | DMS-114 > 100 µM | DMS-273 > 100 µM | HOP-18 > 100 µM | LXFL 529 > 100 µM | RXF 631 > 100 µM | SNB-78 > 100 µM | XF498 > 100 µM

CC/C=C1\N=C(c2ccc(Cl)cc2)OC1=O
inactive: DLD-1 > 100 µM | DMS-114 > 100 µM | DMS-273 > 100 µM | LXFL 529 > 100 µM | SNB-78 > 100 µM | XF498 > 100 µM

CC1=NNC(=O)C1C1CC(c2c[nH]c3ccccc23)=NN(C(N)=O)C1=O (configuration not stated)
inactive: BT-549 34.3 µM

COC1/C=C\C=C(/C)C(=O)NC2=CC(=O)C(N)=C(CC(C)CC(OC)C(O)C(C)C=C(C)C1OC(N)=O)C2=O (configuration not stated)
inactive: BT-549 11.8 µM | SNB-78 3.55 µM
active: DLD-1 0.0689 µM | HOP-18 < 0.01 µM | LXFL 529 0.0462 µM | RXF 631 0.303 µM | XF498 0.0565 µM

Cc1ccc(S(=O)(=O)N2CCC2c2ccccc2)cc1 (configuration not stated)
inactive: DMS-114 48.1 µM | DMS-273 91 µM | HOP-18 80 µM | SNB-78 > 100 µM | XF498 74 µM

CCCCCCCC1(N=[N+]=[N-])C(=O)Nc2ccccc2C1=O (configuration not stated)
inactive: BT-549 16.7 µM

O=C1CSC(=S)N1c1ccc(F)cc1F
inactive: BT-549 39.6 µM

CC(C)C(/N=C/c1ccccc1O)C(=O)O (configuration not stated)
inactive: BT-549 > 100 µM

N#Cc1ccc(N2CCOCC2)cc1
inactive: BT-549 24.9 µM
